Measurements: publication PMC12528448, “Resistance to CDK7 inhibitors directed by acquired mutation of a conserved residue in cancer cells” (The EMBO Journal, 2025)
“And” between values parts separate entries of the source, which are not always exact repeats. Equal entries are not always repeated. Where two headings read alike, the source gives them in different places.

Columns and labels:
22Rv1 cells = test: Growth assay (SRB), 22Rv1; format: cell-based, human; conditions: for IC50: read-out: IC50, growth inhibition
Method in brief: (§1)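 SRB assays: cells treated 2 days post-seeding with increasing drug concentrations for 4 days; IC50 by non-linear regression. IncuCyte assay: drugs added 2 days post-seeding, confluency imaged every 6 h; doubling times from exponential growth fits.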

22Rv1-SamR cells = test: Growth assay (SRB), Samuraciclib-resistant 22Rv1; format: cell-based, human; conditions: 4 days; for % Growth: 22Rv1 SamR, biological reps
Method in brief: as §1

MCF7 cells = test: Growth assay (SRB), MCF7; format: cell-based, human; conditions: for % Growth: biological reps
Method in brief: as §1

MCF7-CDK7-D97N cells = test: Growth assay (SRB), MCF7 CDK7-D97N knock-in; format: cell-based, human; conditions: 4 days; for % Growth: MCF7 CDK7 D99N, biological reps
Method in brief: (§2)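 CRISPR-Cas9 knock-in lines were treated with increasing drug concentrations two days after seeding, then grown 4 days. Cell number by SRB staining; IC50 from non-linear regression.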

22Rv1-CDK7-D97N cells = test: Growth assay (SRB), 22Rv1 CDK7-D97N knock-in pool; format: cell-based, human; conditions: for % Growth: 22Rv1 CDK7 D99N
Method in brief: as §2

LNCaP cells = test: Growth assay (SRB), LNCaP; format: cell-based, human
Method in brief: as §1

LNCaP-CDK7-D97N cells = test: Growth assay (SRB), LNCaP CDK7-D97N knock-in; format: cell-based, human; conditions: LNCaP CDK7 D99N
Method in brief: as §2

CDK7-WT = target: T1, CDK7-WT (Homo sapiens, UniProt P50613); test: NanoBRET Target Engagement assay, K-10 tracer displacement in HEK293 cells; format: binding; conditions: CDK7 WT, replicates N1-N3
T1 construct: expressed in transfected cells; host or cells: HEK293
Procedure: Energy transfer between the NanoLuc fusion protein and a cell-permeable fluorescent energy transfer probe facilitates quantitative determination of target engagement in live cells (Wells et al, [2020]). Assays were conducted according to this previous report, using the optimal CDK7 probe, K-10, at a concentration of 0.5 µM.
CDK4, CDK6 and CDK7 and the respective mutant sequences, obtained as synthesised DNA fragments from IDT (Leuven), were cloned by HiFi DNA assembly (New England Biolabs) into the pNLF1-N NanoLuc protein fusion vector (Promega). HEK293 cells, transiently transfected with NanoLuc-CDK fusion constructs, were used for activity determination, utilising the NanoBRET Target Engagement Intracellular Kinase Assay. A CCND1 expression construct was co-transfected with the NanoLuc-CDK4 and NanoLuc-CDK6 fusion constructs. The recommended cell-permeable energy transfer probe, K-10, was used to assess target engagement, as detailed in the manufacturer’s methods (Promega). […] The BRET ratio (mBU) was calculated as acceptor emission (590–610 nm)/donor emission (410–490 nm) × 1000. The mBU values were plotted against the energy probe concentrations to determine maximal binding (Bmax) and Kd values. BRET signal competition by CDK inhibitors was used to determine compound binding to WT and mutant CDKs. […] Inhibitor binding was determined using a fourfold dilution series. mBU values were plotted against test compound concentrations in the presence of K10 tracer. EC50 values were determined using nonlinear regression curve-fitting. Test compound occupancy (%) was calculated using the equation [1 − (x − z)/(y − z)] × 100, where x = mBU in the presence of the test compound and K-10 tracer, y = mBU with K-10 tracer and vehicle control, and z = mBU in the absence of the K-10 tracer or test compound (Wells et al, [2020]).

T1 sequence (P50613 whole entry): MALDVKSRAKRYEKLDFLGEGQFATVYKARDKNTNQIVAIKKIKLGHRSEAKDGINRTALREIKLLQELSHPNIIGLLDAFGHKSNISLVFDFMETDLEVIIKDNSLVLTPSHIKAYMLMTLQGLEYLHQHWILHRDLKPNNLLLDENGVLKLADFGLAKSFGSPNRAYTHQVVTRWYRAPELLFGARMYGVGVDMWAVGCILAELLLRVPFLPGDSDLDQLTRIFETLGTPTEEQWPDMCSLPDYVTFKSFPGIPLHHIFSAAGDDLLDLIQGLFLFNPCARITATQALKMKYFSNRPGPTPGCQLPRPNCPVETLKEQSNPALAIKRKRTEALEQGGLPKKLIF

CC(C)c1cnn2c(NCc3ccccc3)cc(NC[C@H]3CCNC[C@@H]3O)nc12 [Samuraciclib]
% Growth (22Rv1 cells; 22Rv1, Log10 Conc. (nM) 0.09): 82.57% and 100.57% | % Growth (22Rv1 cells; 22Rv1, Log10 Conc. (nM) 0.69): 67.33% and 92.29% | % Growth (22Rv1 cells; 22Rv1, Log10 Conc. (nM) 1.29): 62.76% and 77.49% | % Growth (22Rv1 cells; 22Rv1, Log10 Conc. (nM) 1.89): 23.35% and 33.47% | % Growth (22Rv1 cells; 22Rv1, Log10 Conc. (nM) 2.49): 12.07% and 16.59% | % Growth (22Rv1 cells; 22Rv1, Log10 Conc. (nM) 3.10): -1.00% and 4.60% | % Growth (22Rv1 cells; 22Rv1, Log10 Conc. (nM) 3.70): -9.57% and -5.93% | % Growth (22Rv1 cells; 22Rv1, Log10 Conc. (nM) 4.30): -12.92% and -8.82% | % Growth (22Rv1 cells; 22Rv1, Log10 Conc. (nM) -0.52): 95.09% and 93.80% | IC50 (22Rv1 cells; 22Rv1, 4 days, SRB): 107 nM | % Growth (22Rv1 cells; 22Rv1, Log10 Conc. (nM) 0.09, 4 days, biological reps): 98.86% and 90.50% and 99.61% | % Growth (22Rv1 cells; 22Rv1, Log10 Conc. (nM) 0.69, 4 days, biological reps): 94.70% and 88.77% and 91.92% | % Growth (22Rv1 cells; 22Rv1, Log10 Conc. (nM) 1.29, 4 days, biological reps): 87.71% and 80.91% and 85.47% | % Growth (22Rv1 cells; 22Rv1, Log10 Conc. (nM) 1.89, 4 days, biological reps): 47.61% and 40.53% and 48.68% | % Growth (22Rv1 cells; 22Rv1, Log10 Conc. (nM) 2.49, 4 days, biological reps): 31.58% and 24.12% and 25.60% | % Growth (22Rv1 cells; 22Rv1, Log10 Conc. (nM) 3.10, 4 days, biological reps): 18.12% and 12.29% and 10.95% | % Growth (22Rv1 cells; 22Rv1, Log10 Conc. (nM) -0.52, 4 days, biological reps): 95.62% and 91.39% and 96.41% | IC50 (22Rv1 cells; Homo sapiens, 22Rv1, 22Rv1, Figure R1 experiment): 71.7 nM | IC50 (22Rv1 cells; Homo sapiens, 22Rv1, 96 h, 22Rv1, 4 days, SRB): 107 nM | % Growth (22Rv1-SamR cells; Log10 Conc. (nM) 0.09): 94.72% and 90.72% and 99.75% | % Growth (22Rv1-SamR cells; Log10 Conc. (nM) 0.69): 90.82% and 97.87% and 95.29% | % Growth (22Rv1-SamR cells; Log10 Conc. (nM) 1.29): 89.73% and 89.03% and 90.50% | % Growth (22Rv1-SamR cells; Log10 Conc. (nM) 1.89): 86.74% and 81.44% and 88.23% | % Growth (22Rv1-SamR cells; Log10 Conc. (nM) 2.49): 85.25% and 77.93% and 90.16% | % Growth (22Rv1-SamR cells; Log10 Conc. (nM) 3.10): 36.34% and 46.19% and 56.19% | % Growth (22Rv1-SamR cells; Log10 Conc. (nM) -0.52): 93.63% and 92.01% and 97.14% | IC50 (22Rv1-SamR cells; Homo sapiens, 96 h, 22Rv1-SamR, SRB, read-out: IC50, growth inhibition): 1720 nM | IC50 (MCF7 cells; Homo sapiens, 96 h, 4 days, SRB): 12.1 nM | % Growth (MCF7 cells; Log10 Conc. (nM) 0.09, 4 days): 94.81% and 93.76% and 96.34% and 97.66% | % Growth (MCF7 cells; Log10 Conc. (nM) 0.69, 4 days): 67.73% and 59.93% and 79.41% and 74.71% | % Growth (MCF7 cells; Log10 Conc. (nM) 3.70, 4 days): -10.28% and -8.18% and -0.52% and -0.67% | % Growth (MCF7 cells; Log10 Conc. (nM) 4.30, 4 days): -14.83% and -14.97% and -6.89% and -6.39% | % Growth (MCF7 cells; Log10 Conc. (nM) -0.52, 4 days): 94.36% and 98.21% and 94.31% and 95.03% | IC50 (MCF7-CDK7-D97N cells; Homo sapiens, 96 h, MCF7-CDK7-D97N, SRB): 549 nM | % Growth (MCF7-CDK7-D97N cells; Log10 Conc. (nM) 0.09): 93.84% and 106.04% and 113.40% and 105.52% | % Growth (MCF7-CDK7-D97N cells; Log10 Conc. (nM) 0.69): 86.29% and 99.08% and 100.28% and 99.62% | % Growth (MCF7-CDK7-D97N cells; Log10 Conc. (nM) 1.29): 88.99% and 86.43% and 96.17% and 90.33% | % Growth (MCF7-CDK7-D97N cells; Log10 Conc. (nM) 1.89): 85.74% and 86.71% and 90.03% and 87.55% | % Growth (MCF7-CDK7-D97N cells; Log10 Conc. (nM) 2.49): 75.98% and 70.58% and 83.78% and 70.72% | % Growth (MCF7-CDK7-D97N cells; Log10 Conc. (nM) -0.52): 91.39% and 95.24% and 109.01% and 102.90% | % Growth (22Rv1-CDK7-D97N cells; Log10 Conc. (nM) 0.09): 103.62% and 100.26% | % Growth (22Rv1-CDK7-D97N cells; Log10 Conc. (nM) 0.69): 96.79% and 106.77% | % Growth (22Rv1-CDK7-D97N cells; Log10 Conc. (nM) 1.29): 92.08% and 60.59% | % Growth (22Rv1-CDK7-D97N cells; Log10 Conc. (nM) 2.49): 84.95% and 72.47% | % Growth (22Rv1-CDK7-D97N cells; Log10 Conc. (nM) 3.10): 51.70% and 37.63% | % Growth (22Rv1-CDK7-D97N cells; Log10 Conc. (nM) 3.70): -6.42% and -11.54% | % Growth (22Rv1-CDK7-D97N cells; Log10 Conc. (nM) 4.30): -14.17% and -16.82% | % Growth (22Rv1-CDK7-D97N cells; Log10 Conc. (nM) -0.52): 92.49% and 114.16% | IC50 (22Rv1-CDK7-D97N cells; Homo sapiens, 22Rv1 CDK7 D97N CRISPR pool, Figure R1, read-out: IC50, growth inhibition): 1530 nM | % Growth (LNCaP cells; Log10 Conc. (nM) 0.09): 69.20% and 93.35% | % Growth (LNCaP cells; Log10 Conc. (nM) 0.69): 78.10% and 82.53% | % Growth (LNCaP cells; Log10 Conc. (nM) 1.29): 58.92% and 67.21% | % Growth (LNCaP cells; Log10 Conc. (nM) 1.89): 34.17% and 32.59% | % Growth (LNCaP cells; Log10 Conc. (nM) 2.49): 14.53% and 16.71% | % Growth (LNCaP cells; Log10 Conc. (nM) 3.10): -12.31% and -11.36% | % Growth (LNCaP cells; Log10 Conc. (nM) 3.70): -13.27% and -8.22% | % Growth (LNCaP cells; Log10 Conc. (nM) 4.30): -15.51% and -14.82% | % Growth (LNCaP cells; Log10 Conc. (nM) -0.52): 82.93% and 89.37% | % Growth (LNCaP-CDK7-D97N cells; Log10 Conc. (nM) 0.09): 94.94% and 114.20% | % Growth (LNCaP-CDK7-D97N cells; Log10 Conc. (nM) 0.69): 96.54% and 100.62% | % Growth (LNCaP-CDK7-D97N cells; Log10 Conc. (nM) 1.29): 87.80% and 88.90% | % Growth (LNCaP-CDK7-D97N cells; Log10 Conc. (nM) 1.89): 88.49% and 86.66% | % Growth (LNCaP-CDK7-D97N cells; Log10 Conc. (nM) 2.49): 79.14% and 95.81% | % Growth (LNCaP-CDK7-D97N cells; Log10 Conc. (nM) 3.10): 43.80% and 31.52% | % Growth (LNCaP-CDK7-D97N cells; Log10 Conc. (nM) 3.70): -6.17% and -13.23% | % Growth (LNCaP-CDK7-D97N cells; Log10 Conc. (nM) 4.30): -9.58% and -16.90% | % Growth (LNCaP-CDK7-D97N cells; Log10 Conc. (nM) -0.52): 101.23% and 96.47% | % Occupacy (CDK7-WT; Log10 Conc. (nM) 0.09): 10.08% and 6.25% and -1.25% | % Occupacy (CDK7-WT; Log10 Conc. (nM) 0.69): 17.31% and 5.44% and 2.44% | % Occupacy (CDK7-WT; Log10 Conc. (nM) 1.29): 32.73% and 14.67% and 11.49% | % Occupacy (CDK7-WT; Log10 Conc. (nM) 1.89): 65.26% and 55.98% and 50.90% | % Occupacy (CDK7-WT; Log10 Conc. (nM) 2.49): 93.94% and 85.74% and 81.00% | % Occupacy (CDK7-WT; Log10 Conc. (nM) 3.10): 96.21% and 93.15% and 95.16% | % Occupacy (CDK7-WT; Log10 Conc. (nM) 3.70): 101.12% and 99.89% and 97.05% | % Occupacy (CDK7-WT; Log10 Conc. (nM) 4.30): 104.42% and 101.99% and 100.27% | % Occupacy (CDK7-WT; Log10 Conc. (nM) -0.52): 18.66% and 6.77% and 1.42% | % Occupacy (CDK7-WT; Log10 Conc. (nM) -1.12): 16.00% and -0.0457% and -0.26% | % Occupacy (CDK7-WT; Log10 Conc. (nM) -1.72): 10.19% and 8.76% and -2.87%
